# Reference: patent publication US20190210996A1, “NOVEL COMPOUNDS” (GLAXOSMITHKLINE INTELLECTUAL PROPERTY DEVELOPMENT LIMITED, priority 2016, published 2019)
# How the values were obtained:
# [1] = target: T1, AAK1 (Homo sapiens, UniProt Q2M2I8); test: Expression proteomics in THP-1 cells: AAK1 protein level; assay type: cell-based; settings: AAK1, THP-1 cells
# T1 construct: endogenous in cells; host or cells: THP-1
# Protocol: (§1) THP-1 cells were seeded at a concentration of 3×10^6 cells in T175 flasks with 60 mL growth medium (RPMI1640+10% FBS). […] of a 10× compound solution prepared in growth medium (DMSO), CEREBLON_PROTAC) was added and the cells were treated for the indicated time points (6 or 24 h) at 37° C., 5% CO2. For harvesting the cells were collected into falcon tubes on ice, centrifuged and washed twice in cold PBS (Life technologies). After the last washing step the supernatant was removed and the pellets were snap-frozen in liquid N2 and stored at −80° C. and lysed in 2% SDS for 3 min at 95° C. in a thermomixer (Thermo Fisher Scientific), followed by digestion of DNA with Benzonase at 37° C. for 1.5 h. Lysate was cleared by centrifugation an protein concentration in supernatant was determined by BCA assay.
# (§2) Leukemia 25, 89-100 (2011).
# (§3) Samples were dried in vacuo and resuspended in 0.05% trifluoroacetic acid in water. Of the sample, 50% was injected into an Ultimate3000 nanoRLSC (Dionex, Sunnyvale, Calif.) coupled to a Q Exactive HF (Thermo Fisher Scientific). Peptides were trapped on a 5 mm×300 μm C18 column (Pepmap100, 5 μm, 300 Å, Thermo Fisher Scientific) in water with 0.05% TFA at 60° C. Separation was performed on custom 50 cm×[…] (ID) reversed-phase columns (Reprosil) at 55° C. Gradient elution was performed from 2% acetonitrile to 40% acetonitrile in 0.1% formic acid and 3.5% DMSO over 2 hours. Samples were online injected into Q-Exactive HF mass spectrometers operating with a data-dependent top 10 method. MS spectra were acquired by using 60.000 resolution and an ion target of 3×10^6. Higher energy collisional dissociation (HCD) scans were performed with 35% NCE at 30.000 resolution (at m/z 200), and the ion target settings was set to 2×10^5 so as to avoid coalescence (Werner, T. et al. Ion Coalescence of Neutron Encoded TMT 10-Plex Reporter Ions. Anal. Chem. 86, 3594-3601 (2014).
# (§4) The first search was performed with 30 parts per million mass tolerance for peptide precursors and 30 mD (HCD) mass tolerance for fragment ions followed by a final search using recalibrated data with a 10 parts per million mass tolerance for peptide precursors and 20 mD (HCD) mass tolerance for fragment ions. Carbamidomethylation of cysteine residues and TMT modification of lysine residues were set as fixed modifications and methionine oxidation, and N-terminal acetylation of proteins and TMT modification of peptide N-termini were set as variable modifications. […]
# (§5) Nat Biotech 29, 255-265 (2011). this measure is referred to as ion area Savitski, M. M. et al. Delayed Fragmentation and Optimized Isolation Width Settings for Improvement of Protein Identification and Accuracy of Isobaric Mass Tag Quantification on Orbitrap-Type Mass Spectrometers. […]
# [2] = target: T2, PRKAA1 (Homo sapiens, UniProt Q13131); test: Expression proteomics in THP-1 cells: PRKAA1 protein level; assay type: cell-based; settings: PRKAA1, THP-1 cells
# T2 construct: endogenous in cells; host or cells: THP-1
# T2 sequence (Q13131 whole entry): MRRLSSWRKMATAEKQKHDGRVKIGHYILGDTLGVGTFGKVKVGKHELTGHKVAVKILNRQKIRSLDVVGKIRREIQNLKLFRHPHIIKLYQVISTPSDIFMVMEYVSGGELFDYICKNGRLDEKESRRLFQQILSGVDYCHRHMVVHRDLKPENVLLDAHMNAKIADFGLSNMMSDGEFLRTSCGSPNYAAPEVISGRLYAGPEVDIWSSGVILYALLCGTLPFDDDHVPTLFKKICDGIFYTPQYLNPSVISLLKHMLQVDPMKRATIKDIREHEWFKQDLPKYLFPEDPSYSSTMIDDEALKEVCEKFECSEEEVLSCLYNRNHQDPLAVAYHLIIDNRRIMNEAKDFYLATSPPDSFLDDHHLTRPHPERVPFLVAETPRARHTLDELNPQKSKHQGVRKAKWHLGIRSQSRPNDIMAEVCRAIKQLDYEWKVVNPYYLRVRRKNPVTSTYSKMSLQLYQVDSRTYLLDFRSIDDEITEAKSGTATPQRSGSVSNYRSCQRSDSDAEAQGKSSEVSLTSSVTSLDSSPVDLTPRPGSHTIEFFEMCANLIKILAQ
# T2 sequence (Q9Y478 2-270 partner limits assumed): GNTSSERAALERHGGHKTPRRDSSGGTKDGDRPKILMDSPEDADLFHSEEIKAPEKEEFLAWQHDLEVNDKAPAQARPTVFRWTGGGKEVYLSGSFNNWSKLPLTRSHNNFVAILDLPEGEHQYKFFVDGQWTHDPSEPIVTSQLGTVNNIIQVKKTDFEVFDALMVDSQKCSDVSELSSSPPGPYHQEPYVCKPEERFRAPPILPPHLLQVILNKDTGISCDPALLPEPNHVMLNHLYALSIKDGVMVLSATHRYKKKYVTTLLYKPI
# T2 sequence (P54619 whole entry partner): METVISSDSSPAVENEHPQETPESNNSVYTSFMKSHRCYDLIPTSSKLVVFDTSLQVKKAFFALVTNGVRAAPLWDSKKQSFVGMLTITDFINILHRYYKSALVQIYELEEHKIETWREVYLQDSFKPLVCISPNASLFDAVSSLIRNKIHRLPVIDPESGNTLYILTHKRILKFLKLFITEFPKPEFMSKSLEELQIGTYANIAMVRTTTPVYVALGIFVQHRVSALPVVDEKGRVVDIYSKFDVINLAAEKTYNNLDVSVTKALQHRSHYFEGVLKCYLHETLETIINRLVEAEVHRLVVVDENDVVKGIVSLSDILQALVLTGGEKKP
# Protocol: as §1, §2, §3, §4, §5
# T1 sequence (Q2M2I8 whole entry): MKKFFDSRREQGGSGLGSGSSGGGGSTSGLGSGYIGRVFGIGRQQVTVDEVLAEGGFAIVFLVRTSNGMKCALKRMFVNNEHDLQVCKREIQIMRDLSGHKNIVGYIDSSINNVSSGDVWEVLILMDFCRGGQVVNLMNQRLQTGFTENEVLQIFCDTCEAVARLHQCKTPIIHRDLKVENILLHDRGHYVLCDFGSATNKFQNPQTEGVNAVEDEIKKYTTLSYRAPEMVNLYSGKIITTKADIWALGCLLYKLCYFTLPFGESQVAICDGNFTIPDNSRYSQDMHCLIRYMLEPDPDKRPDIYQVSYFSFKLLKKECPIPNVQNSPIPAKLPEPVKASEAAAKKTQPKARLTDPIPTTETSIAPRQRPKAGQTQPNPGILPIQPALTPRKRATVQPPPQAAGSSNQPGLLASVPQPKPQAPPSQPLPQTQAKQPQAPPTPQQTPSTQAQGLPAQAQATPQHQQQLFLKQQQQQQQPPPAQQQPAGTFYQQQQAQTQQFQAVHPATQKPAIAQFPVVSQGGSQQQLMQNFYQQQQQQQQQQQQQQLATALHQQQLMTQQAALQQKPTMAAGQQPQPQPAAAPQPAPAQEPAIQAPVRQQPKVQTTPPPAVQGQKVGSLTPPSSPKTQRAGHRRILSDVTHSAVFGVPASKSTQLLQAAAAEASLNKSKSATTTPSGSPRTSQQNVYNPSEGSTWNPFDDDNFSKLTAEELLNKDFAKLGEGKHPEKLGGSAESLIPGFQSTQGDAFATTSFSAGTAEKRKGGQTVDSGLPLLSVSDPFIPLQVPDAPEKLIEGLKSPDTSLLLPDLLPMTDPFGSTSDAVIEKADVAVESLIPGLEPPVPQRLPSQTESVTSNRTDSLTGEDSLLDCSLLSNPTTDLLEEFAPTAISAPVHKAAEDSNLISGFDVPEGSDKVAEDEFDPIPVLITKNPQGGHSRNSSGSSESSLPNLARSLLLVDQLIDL
smiles,measurement,setting,value
"CNC(=O)c1ccccc1Nc1nc(Nc2ccc(N3CCN(CCOCCOCCOCCOCC(=O)Nc4cccc5c4CN(C4CCC(=O)NC4=O)C5=O)CC3)cc2)ncc1Cl.O=CO (centres unmarked) [CEREBLON_PROTAC, 14-(4-(4-((5-Chloro-4-((2-(methylcarbamoyl)phenyl)amino)pyrimidin-2-yl)amino)phenyl)piperazin-1-yl)-N-(2-(2,6-dioxopiperidin-3-yl)-1-oxoisoindolin-4-yl)-3,6,9,12-tetraoxatetradecan-1-amide formate]",log2 rel. fc. to vehicle control,"[1]; 24 h 0.1 μM, n = 1",−2.34
same,log2 rel. fc. to vehicle control,"[1]; 24 h 0.1 μM, n = 2",−2.12
same,log2 rel. fc. to vehicle control,"[1]; 24 h 1 μM, n = 1",−2.42
same,log2 rel. fc. to vehicle control,"[1]; 24 h 1 μM, n = 2",−2.56
same,log2 rel. fc. to vehicle control,"[2]; 24 h 0.1 μM, n = 1",−0.38
same,log2 rel. fc. to vehicle control,"[2]; 24 h 0.1 μM, n = 2",−0.74
same,log2 rel. fc. to vehicle control,"[2]; 24 h 1 μM, n = 1",−1.06
same,log2 rel. fc. to vehicle control,"[2]; 24 h 1 μM, n = 2",−1.35
